The record followed here is article PMC8151276, “An Integrated Approach toward NanoBRET Tracers for Analysis of GPCR Ligand Engagement” (Molecules, 2021).

This test has as its target T1, CCR10 (Homo sapiens, UniProt P46092).
T1 construct: purchased Promega (in-house HiBiT-GPCR construct library, NanoBRET)
T1 sequence (P46092 1-362): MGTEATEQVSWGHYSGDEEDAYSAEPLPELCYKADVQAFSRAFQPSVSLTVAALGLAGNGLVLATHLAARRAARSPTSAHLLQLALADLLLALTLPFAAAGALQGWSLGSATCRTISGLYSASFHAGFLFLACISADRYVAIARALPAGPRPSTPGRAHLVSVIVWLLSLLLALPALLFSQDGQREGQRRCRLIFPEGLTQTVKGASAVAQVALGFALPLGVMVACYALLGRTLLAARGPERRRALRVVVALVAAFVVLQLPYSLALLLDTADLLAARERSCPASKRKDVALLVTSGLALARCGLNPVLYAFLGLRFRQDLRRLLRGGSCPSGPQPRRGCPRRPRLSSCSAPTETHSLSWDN
The experiment in a line: NanoBRET screen HiBiT-CCR10 in HEK293. The class given is binding. Here is the method:
Each tracer candidate was screened across the entire library of HiBiT-GPCR constructs using NanoBRET as the detection modality. As depicted in Figure 4A, the specificity of interactions was evaluated through decrease in BRET due to competitive displacement of a bound tracer by excess parental compound. Each tracer was analyzed for binding to each HiBiT-GPCR fusion in the absence and in the presence of competing parental compound. Briefly, HEK293 cells were transfected with HiBiT-GPCR constructs diluted into promoterless DNA to reduce expression and maximize translocation to the cell surface. Each tracer candidate was then screened at concentrations of 1 μM and 0.1 μM across cells expressing these fusions. Cells were treated for 1.5 h with tracer either alone or in the presence of 20 μM competing parental compound (i.e., control). BRET was measured upon addition of purified LgBiT and subsequent complementation with HiBiT genetically fused to a GPCR. The specificity of interactions was assessed through a decrease in BRET signal due to competitive displacement of the bound tracer. To further gauge the robustness of these interactions, the fold response over the control (i.e., BRETtracer/BRETcontrol) was calculated. We chose a 1.5-fold response, which translates to ≥7-fold signal over noise as the minimal threshold required to score an interaction as positive.
HiBiT-GPCR DNA constructs were diluted in 10 mM Tris pH 8 to a final concentration of 0.01 μg/μL, arrayed in 96-well plates and stored at −20 °C. For transfection, HEK293 cells were suspended in Opti-MEM (without phenol red) supplemented with 2% fetal bovine serum (Seradigm) and 100 units/mL penicillin–streptomycin (Gibco) at a final concentration of 220,000 cells/mL and dispensed into white 96-well plates at 90 μL/well. Subsequent transfections and screens were carried using an Agilent Bravo Automated Liquid Handling Platform. First, the 96-well HiBiT DNA arrays were diluted 25-fold in Opti-MEM (without serum or phenol red) to a final concentration of 0.0004 μg/μL and 20 μL of the diluted DNAs were transferred into new 96-well plates. Next, promoterless carrier DNA (1 μg/μL) was diluted 25-fold (0.04 μg/μL) and then dispensed into the diluted arrays at 20 μL/well. Following brief mixing, Viafect transfection reagent (Promega) diluted 16-fold into Opti-MEM was dispensed into the plates at 40 μL/well. After mixing by pipetting, plates were incubated for 10 min on the pipetting station deck. The DNA-transfection reagent complexes were then added to plates containing cells. To facilitate the screen, 10 μL of DNA-transfection reagent complexes were added in duplicates to the top 4 and bottom 4 rows, resulting in two identical 48-well arrays per plate. Plates with transfected cells were incubated for 18–20 h at 37 °C/5% CO2. A screen of each tracer across the entire library using two different concentrations requires duplicate plates of transfected cells. Depending on the number of tracers being screened, transfections can be scaled up using the same ratios. The next day, for each tracer, four 20× screening solutions in tracer dilution buffer (Promega) were prepared: two duplicates at final concentration of 20 μM and two duplicates at a final concentration of 2 μM. […] The four resulting solutions were diluted 4-fold in Opti-MEM without serum or phenol red to generate 5× solutions (5 µM and 0.5 µM tracer +/− 100 μM competing compound). To screen the library, a BioTek MultiFlo FX liquid dispenser was used to dispense 22.5 µL of tracer solution to the top 4 rows and 22.5 µL tracer + competing compound solution to the 4 bottom rows. Plates were briefly mixed on an orbital shaker and incubated for 1.5 h at room temperature. […] Plates were briefly mixed on an orbital shaker and incubated for 15 min to allow complementation.

`O=C(CCOCCOCCOCCOCCNC(=O)CCc1ccc2n1[B-](F)(F)[N+]1=C(c3ccc[nH]3)C=CC1=C2)NCCCN1CCN(C2=Nc3ccccc3Oc3ccc(Cl)cc32)CC1` [Loxapine-a-2-NB590]: the “NanoBRET Fold Response” value (CCR10, tracer 0.1μM) came to 1.04 and the “NanoBRET Fold Response” value (CCR10, tracer 1μM) was determined as 1.04.
As for `CCCn1c(=O)c2[nH]c(-c3ccc(OCC(=O)NCCNC(=O)CCOCCNC(=O)c4ccc(CNC(=O)CCc5ccc6n5[B-](F)(F)[N+]5=C(c7ccc[nH]7)C=CC5=C6)cc4)cc3)nc2n(CCC)c1=O` [XAC-3-NB590], the “NanoBRET Fold Response” value (CCR10, tracer 0.1μM) is listed as 0.92 and the “NanoBRET Fold Response” value (CCR10, tracer 1μM) is on record as 0.78.
Regarding `CN(C)CCC=C1c2ccccc2CCc2ccc(C(=O)NCCNC(=O)CCOCCOCCOCCOCCNC(=O)CCc3ccc4n3[B-](F)(F)[N+]3=C(c5ccc[nH]5)C=CC3=C4)cc21` [Amitriptyline-a-2-NB590], the “NanoBRET Fold Response” value reads like this: (tracer at 0.1μM) 1.02; (tracer at 1μM) 1.00.
On to `COc1ccccc1N1CCN(CCCCN2C(=O)c3ccc(CNC(=O)CCOCCOCCOCCOCCNC(=O)CCc4ccc5n4[B-](F)(F)[N+]4=C(c6ccc[nH]6)C=CC4=C5)cc3C2=O)CC1` [NAN-190-2-NB590], for which the “NanoBRET Fold Response” value runs as follows: (CCR10, tracer 0.1μM) 0.97; (CCR10, tracer 1μM) 1.00.
`O=C(CCc1ccc2n1[B-](F)(F)[N+]1=C(c3ccc[nH]3)C=CC1=C2)NCc1ccc(C(=O)NCCOCCOCCNCC(O)COc2cccc3ccccc23)cc1` (stereo not shown) [Propranolol-3-NB590]: the “NanoBRET Fold Response” value is given as 1.04 (CCR10, 0.1μM) and 1.00 (CCR10, 1μM).
As to `COc1ccccc1N1CCN(CCCCN2C(=O)c3ccc(CNC(=O)CCOCCNC(=O)c4ccc(CNC(=O)CCc5ccc6n5[B-](F)(F)[N+]5=C(c7ccc[nH]7)C=CC5=C6)cc4)cc3C2=O)CC1` [NAN-190-3-NB590], the “NanoBRET Fold Response” value reads like this: (CCR10, tracer 0.1μM) 1.04; (CCR10, tracer 1μM) 1.27.
For `O=C(CCc1ccc2n1[B-](F)(F)[N+]1=C(c3ccc[nH]3)C=CC1=C2)NCc1ccc(C(=O)NCCOCCC(=O)N[C@@H]2CC[C@@]3(O)[C@H]4Cc5ccc(O)c6c5[C@@]3(CCN4CC3CC3)[C@H]2O6)cc1` [Naltrexone-3-NB590], the “NanoBRET Fold Response” value is, setting by setting: (CCR10, tracer 0.1μM) 1.02; (CCR10, tracer 1μM) 0.92.
As to `CCOC(=O)c1cc(C#N)c(N2CCC(C(=O)NS(=O)(=O)Cc3ccccc3/C=C/C(=O)NCCNC(=O)CCc3ccc4n3[B-](F)(F)[N+]3=C(c5ccc[nH]5)C=CC3=C4)CC2)nc1C` [AZD1283-1-NB590], the “NanoBRET Fold Response” value runs as follows: (CCR10, 0.1μM) 1.00; (CCR10, 1μM) 1.07.
Regarding `COc1ccc2[nH]c(-c3ccc(CNC(=O)CCOCCOCCOCCOCCNC(=O)CCc4ccc5n4[B-](F)(F)[N+]4=C(c6ccc[nH]6)C=CC4=C5)cc3)c(CCNC(C)=O)c2n1` [AzomelatoninICO9-2-NB590], the “NanoBRET Fold Response” value is listed as 0.87 (0.1μM tracer) and 1.18 (1μM tracer).
In the case of `CC(C)N(CC[C@H](c1ccccc1)c1cc(CCNC(=O)CCOCCOCCOCCOCCNC(=O)CCc2ccc3n2[B-](F)(F)[N+]2=C(c4ccc[nH]4)C=CC2=C3)ccc1O)C(C)C` [Tolterodine-2-NB590], the “NanoBRET Fold Response” value is, setting by setting: (CCR10, tracer 0.1μM) 1.17; (CCR10, tracer 1μM) 0.97.
As for `CN1CCN(C2=Nc3cc(Cl)ccc3N(CC(=O)NCCOCCOCCOCCOCCNC(=O)CCc3ccc4n3[B-](F)(F)[N+]3=C(c5ccc[nH]5)C=CC3=C4)c3ccccc32)CC1` [Clozapine-c-2-NB590], the “NanoBRET Fold Response” value (CCR10, 0.1μM tracer) stood at 1.00 and the “NanoBRET Fold Response” value (CCR10, 1μM tracer) came to 0.91.
On to `N#CN=C(NCCCOc1cccc(CN2CCCCC2)c1)NCCNC(=O)CCOCCOCCOCCOCCNC(=O)CCc1ccc2n1[B-](F)(F)[N+]1=C(c3ccc[nH]3)C=CC1=C2` [Aminopotentidine-2-NB590], for which the “NanoBRET Fold Response” value runs as follows: (CCR10, tracer 0.1μM) 1.00; (CCR10, tracer 1μM) 1.01.
For `COc1ccc2c(n1)c(CCNC(C)=O)cn2CCNC(=O)CCc1ccc2n1[B-](F)(F)[N+]1=C(c3ccc[nH]3)C=CC1=C2` [Azamelatonin-1-NB590], the “NanoBRET Fold Response” value (0.1μM tracer) stood at 0.84 and the “NanoBRET Fold Response” value (1μM tracer) was 0.85.
For the molecule `CN(CCC=C1c2ccccc2CCc2ccccc21)C(=O)CCOCCOCCOCCOCCNC(=O)CCc1ccc2n1[B-](F)(F)[N+]1=C(c3ccc[nH]3)C=CC1=C2` [Amitriptyline-e-2-NB590], the “NanoBRET Fold Response” value (tracer at 1μM) is 1.04.
With `CC(C)N(CC[C@H](c1ccccc1)c1cc(CCNC(=O)c2ccc(CNC(=O)CCc3ccc4n3[B-](F)(F)[N+]3=C(c5ccc[nH]5)C=CC3=C4)cc2)ccc1O)C(C)C` [Tolterodine-BZ-NB590], the “NanoBRET Fold Response” value (CCR10, tracer 0.1μM) is recorded as 1.00 and the “NanoBRET Fold Response” value (CCR10, tracer 1μM) was determined as 1.08.
The matching figures for `O=C(CCc1ccc2n1[B-](F)(F)[N+]1=C(c3ccc[nH]3)C=CC1=C2)NCCOCCOCCNC(=O)OCCOCCN1CCN(C2=Nc3ccccc3Sc3ccccc32)CC1` [Quetiapine-a-2-NB590]: 1.01 and 0.94.
On the same counts, the results for `Cc1cc2c(s1)Nc1ccccc1N=C2N1CCN(CCCNC(=O)CCOCCOCCOCCOCCNC(=O)CCc2ccc3n2[B-](F)(F)[N+]2=C(c4ccc[nH]4)C=CC2=C3)CC1` [Olanzapine-a-2-NB590] are 1.01 and 0.95.
Regarding `CN(C)CCC=C1c2ccccc2CCc2ccc(C(=O)NCCNC(=O)CCOCCOCCOCCOCCNC(=O)CCc3ccc4n3[B-](F)(F)[N+]3=C(c5ccc[nH]5)C=CC3=C4)cc21` [Amitriptyline-b-2-NB590], the “NanoBRET Fold Response” value by setting is: (tracer at 0.1μM, listed as amitriptyline-b-2-NB590) 1.05; (tracer at 1μM, listed as amitriptyline-b-2-NB590) 1.19.
Consider `O=C(CCOCCOCCOCCOCCNC(=O)CCc1ccc2n1[B-](F)(F)[N+]1=C(c3ccc[nH]3)C=CC1=C2)NCCCN1CCN(C2=Nc3cc(Cl)ccc3Nc3ccccc32)CC1` [Clozapine-a-2-NB590], for which the “NanoBRET Fold Response” value came to 1.04 (CCR10, 0.1μM tracer) and 1.01 (CCR10, 1μM tracer).
The matching figures for `CN1CCN(C2=Nc3cc(Cl)ccc3Nc3ccc(CNC(=O)CCOCCOCCOCCOCCNC(=O)CCc4ccc5n4[B-](F)(F)[N+]4=C(c6ccc[nH]6)C=CC4=C5)cc32)CC1` [Clozapine-b-2-NB590]: 1.01 and 1.15.
For `Cc1nc2n(c(=O)c1CCN1CCC(c3noc4cc(F)ccc34)CC1)CCCC2OC(=O)NCCOCCOCCOCCOCCNC(=O)CCc1ccc2n1[B-](F)(F)[N+]1=C(c3ccc[nH]3)C=CC1=C2` (stereo not shown) [Risperidone-2-NB590], the “NanoBRET Fold Response” value (CCR10, tracer 1μM) was determined as 0.95.
